Experimental data: patent publication US10738028B2, “Spiro three-membered ring, spiro five-membered ring peptide deformylase inhibitor and use thereof in antibacteria and anti-tumor” (priority 2016, dated 2020)

Assays:
Format in all cases: cell-based
[1] = tested on: BEL-7402 liver cancer cell line; assay: CCK-8 proliferation inhibition
Method in brief: (§1)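 Plating at 2000 cells/well, then incubation overnight at 37° C. Next, a range of compound concentrations for 72 hours (control 1‰ DMSO). Finally, medium decanted and CCK-8 diluted 1:10 added.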

[2] = tested on: A549 lung cancer cell line; assay: CCK-8 proliferation inhibition
Method in brief: as §1

[3] = tested on: MGC-803 gastric cancer cell line; assay: CCK-8 proliferation inhibition
Method in brief: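 CCK-8 read-out after 72 h drug exposure; 2000 cells/well, overnight pre-culture (37° C, 5% CO2); vehicle 1‰ DMSO. Media: PC3 F12; MGC-803/Jurkat 1640; MCF-7 DMEM high glucose; all +10% newborn bovine serum, 1% antibiotics.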

[4] = tested on: Enterococcus faecalis (EFA); assay: MIC, two-fold agar dilution (CLSI), clinical isolates
Method in brief: (§2)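 Samples are serially diluted two-fold in agar following CLSI guidance. Plates are then inoculated with the tested strains. The lowest inhibiting concentration is recorded as MIC.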

[5] = tested on: Moraxella catarrhalis (BCA); assay: as above
Method in brief: as §2

[6] = tested on: methicillin-sensitive Staphylococcus aureus (MSSA); assay: as above
Method in brief: as §2

[7] = tested on: Escherichia coli (including ESBLs, non-ESBLs); assay: as above
Method in brief: as §2

[8] = tested on: methicillin-resistant Staphylococcus aureus (MRSA); assay: as above
Method in brief: as §2

[9] = tested on: Enterococcus faecium (EFM); assay: as above
Method in brief: as §2

[10] = tested on: methicillin-sensitive Staphylococcus epidermidis (MSSE); assay: as above
Method in brief: as §2

[11] = tested on: Streptococcus pneoumoniae (SPN); assay: as above; conditions: strain SPN 16-2
Method in brief: as §2

[12] = tested on: methicillin-resistant Staphylococcus epidermidis (MRSE); assay: as above
Method in brief: as §2

[13] = MIC in vitro anti-bacterial experiments, Gram-positive bacteria; conditions: lowest MIC reached; read-out: minimum inhibitory concentration against Gram-positive bacteria
Description: 1. The invention adopts the two-fold agar dilution method recommended by the operating procedure of antimicrobial susceptibility testing set by American Clinical and Laboratory Standards Institute (CLSI) to determine the Minimum Inhibitory Concentration (MIC) of the test samples against the tested strains.

[14] = tested on: HCT-116 colorectal cancer cell line; assay: CCK-8 proliferation inhibition; conditions: 72 hours, CCK-8
Method in brief: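 2000 cells/well, McCoy's 5A + 10% newborn bovine serum; overnight attach, 37° C./5% CO2. Cpd from DMSO stock diluted in medium, 72 h. Readout: CCK-8 (1:10). Ctrl 1‰ DMSO.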

[15] = concentration of 30 μM, 72 hours, 30 µM

For `O=C(C[C@@H](CC1CCCC1)C(=O)N1CC2(CC2)C[C@H]1C(=O)Nc1nc(C(F)(F)F)cs1)NO` [Example 73], the IC50 ([1]; Homo sapiens, Bel-7402, 72 hours) was 10 µM, the “Inhibition of proliferation, Liver cancer BEL-7402” value [1, 15] was 81% and the inhibition at 30 µM ([2]; Homo sapiens, A549, 72 h, concentration of 30 μM) was greater than 50%. For the same molecule, the IC50 ([2]; Homo sapiens, A549, 72 hours) was 5.12 µM, the “Inhibition of proliferation, Lung cancer A549” value [2, 15] was 63% and the inhibition at 30 µM ([3]; Homo sapiens, MGC-803, 72 h, concentration of 30 μM) was greater than 50%. The IC50 ([3]; Homo sapiens, MGC-803, 72 hours) was 12.7 µM, the “Inhibition of proliferation, Gastric cancer MGC-803” value [3, 15] was 65% and the Anti-bacterial activity (MIC) ([4]; strain EFA 15-1) was 2 µg/mL. It also gave an Anti-bacterial activity (MIC) ([4]; strain EFA 15-2) of 2 µg/mL, an Anti-bacterial activity (MIC) ([4]; strain EFA 15-3) of 2 µg/mL and an Anti-bacterial activity (MIC) ([4]; strain EFA 15-4) of 2 µg/mL. It also gave an Anti-bacterial activity (MIC) ([4]; strain EFA 15-5) of 2 µg/mL, an Anti-bacterial activity (MIC) ([4]; strain EFA 15-6) of 2 µg/mL and an Anti-bacterial activity (MIC) ([4]; strain EFA 15-9) of 2 µg/mL. It also gave an Anti-bacterial activity (MIC) ([5]; strain BCA 14-1) of 1 µg/mL, an Anti-bacterial activity (MIC) ([5]; strain BCA 14-4) of 1 µg/mL and an Anti-bacterial activity (MIC) ([5]; strain BCA 14-5) of 0.25 µg/mL. The Anti-bacterial activity (MIC) ([5]; strain BCA 14-6) was 1 µg/mL, the Anti-bacterial activity (MIC) ([5]; strain BCA 14-7) was 0.125 µg/mL and the Anti-bacterial activity (MIC) ([5]; strain BCA 14-8) was 0.25 µg/mL. For the same molecule, the Anti-bacterial activity (MIC) ([5]; strain BCA 14-10) was 0.125 µg/mL, the Anti-bacterial activity (MIC), strain MSSA 15-3 ([6]; clinical isolate MSSA 15-3) was 0.06 µg/mL and the Anti-bacterial activity (MIC), strain MSSA 15-4 ([6]; clinical isolate MSSA 15-4) was 0.06 µg/mL. It also gave an Anti-bacterial activity (MIC), strain MSSA 15-5 ([6]; clinical isolate MSSA 15-5) of 0.03 µg/mL, an Anti-bacterial activity (MIC), strain MSSA 15-6 ([6]; clinical isolate MSSA 15-6) of 0.06 µg/mL and an Anti-bacterial activity (MIC), strain ECO+ 15-1 ([7]; clinical isolate ECO+ 15-1) of 16 µg/mL. It also gave an Anti-bacterial activity (MIC), strain ECO+ 15-2 ([7]; clinical isolate ECO+ 15-2) of 32 µg/mL, an Anti-bacterial activity (MIC), strain ECO+ 15-3 ([7]; clinical isolate ECO+ 15-3) of 32 µg/mL and an Anti-bacterial activity (MIC), strain ECO+ 15-4 ([7]; clinical isolate ECO+ 15-4) of 32 µg/mL. For the same molecule, the Anti-bacterial activity (MIC), strain ECO− 15-1 ([7]; clinical isolate ECO− 15-1) was 32 µg/mL, the Anti-bacterial activity (MIC), strain ECO− 15-2 ([7]; clinical isolate ECO− 15-2) was 32 µg/mL and the Anti-bacterial activity (MIC), strain ECO− 15-3 ([7]; clinical isolate ECO− 15-3) was 32 µg/mL. It also gave an Anti-bacterial activity (MIC), strain ECO− 15-4 ([7]; clinical isolate ECO− 15-4) of 32 µg/mL, an Anti-bacterial activity (MIC), strain MRSA 15-1 ([8]; clinical isolate MRSA 15-1) of 0.03 µg/mL and an Anti-bacterial activity (MIC), strain MRSA 15-2 ([8]; clinical isolate MRSA 15-2) of 0.06 µg/mL. It also gave an Anti-bacterial activity (MIC), strain MRSA 15-3 ([8]; clinical isolate MRSA 15-3) of 0.06 µg/mL, an Anti-bacterial activity (MIC), strain MRSA 15-4 ([8]; clinical isolate MRSA 15-4) of 0.06 µg/mL and an Anti-bacterial activity (MIC) ([9]; strain EFM 15-1) of 1 µg/mL. For the same molecule, the Anti-bacterial activity (MIC) ([9]; strain EFM 15-2) was 1 µg/mL, the Anti-bacterial activity (MIC) ([9]; strain EFM 15-3) was 0.125 µg/mL and the Anti-bacterial activity (MIC) ([9]; strain EFM 15-4) was 1 µg/mL. The Anti-bacterial activity (MIC) ([9]; strain EFM 15-5) was 0.125 µg/mL, the Anti-bacterial activity (MIC) ([9]; strain EFM 15-6) was 1 µg/mL and the Anti-bacterial activity (MIC), strain MSSE 15-3 ([10]; clinical isolate MSSE 15-3) was 0.015 µg/mL. The Anti-bacterial activity (MIC), strain MSSE 15-4 ([10]; clinical isolate MSSE 15-4) was less than 0.008 µg/mL, the Anti-bacterial activity (MIC), strain MSSE 15-5 ([10]; clinical isolate MSSE 15-5) was less than 0.008 µg/mL and the Anti-bacterial activity (MIC), strain MSSE 15-6 ([10]; clinical isolate MSSE 15-6) was less than 0.008 µg/mL. It also gave an Anti-bacterial activity (MIC) [11] of 1 µg/mL, an Anti-bacterial activity (MIC), strain MRSE 15-1 ([12]; clinical isolate MRSE 15-1) of less than 0.008 µg/mL and an Anti-bacterial activity (MIC), strain MRSE 15-2 ([12]; clinical isolate MRSE 15-2) of 0.015 µg/mL. For the same molecule, the Anti-bacterial activity (MIC), strain MRSE 15-3 ([12]; clinical isolate MRSE 15-3) was less than 0.008 µg/mL, the Anti-bacterial activity (MIC), strain MRSE 15-7 ([12]; clinical isolate MRSE 15-7) was 0.06 µg/mL and the MIC [13] was less than 0.008 µg/mL. It also gave an IC50 ([14]; Homo sapiens, HCT-116) of 6.21 µM and an HCT116 inhibition rate/% ([14]; concentration of 30 μM, 30 µM) of 78%.
